Results reported in ChEMBL document CHEMBL1201862, “PubChem BioAssay data set” (2004).
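1) Cells in 96-well plates. 2) Compound, 48 h, 5 concentrations. 3) Linear interpolation between surrounding doses. 4) Unreached endpoint = highest concentration. Here, GI50 denotes the concentration required for 50% inhibition of growth.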 The source made the active and inactive calls. Cut-off read from the data, not from the text of the source: active = GI50 up to about 1.1 µM and inactive = higher.

Legend:
Test in all cases: NCI tumour cell line growth inhibition, 48 h
[1] = tested on: NCI-H226
[2] = tested on: SNB-19
[3] = tested on: UO-31
[4] = tested on: NCI-H23
[5] = tested on: OVCAR-4
[6] = tested on: SK-MEL-28
[7] = tested on: TK-10
[8] = tested on: SNB-75
[9] = tested on: NCI-H460
[10] = tested on: M14
[11] = tested on: IGROV-1
[12] = tested on: EKVX
[13] = tested on: HCT-15
[14] = tested on: LXFL 529
[15] = tested on: SK-OV-3
[16] = tested on: ACHN
[17] = tested on: SK-MEL-5
[18] = tested on: A498
[19] = tested on: MDA-MB-435
[20] = tested on: MDA-N

| SMILES | GI50 [1] | GI50 [2] | GI50 [3] | GI50 [4] | GI50 [5] | GI50 [6] | GI50 [7] | GI50 [8] | GI50 [9] | GI50 [10] | GI50 [11] | GI50 [12] | GI50 [13] [µM] | GI50 [14] | GI50 [15] | GI50 [16] | GI50 [17] | GI50 [18] | GI50 [19] | GI50 [20] |
| --- | --- | --- | --- | --- | --- | --- | --- | --- | --- | --- | --- | --- | --- | --- | --- | --- | --- | --- | --- | --- |
| CC1CCCc2c1c1ccc3c(O)cccc3c1oc2=O (stereo not given) | > 100 µM (inactive) | 34.7 µM (inactive) | > 100 µM (inactive) | 29.9 µM (inactive) | 14.1 µM (inactive) | > 100 µM (inactive) | 28.8 µM (inactive) | 8.15 µM (inactive) | > 100 µM (inactive) | > 100 µM (inactive) | 39.6 µM (inactive) | 2.05 µM (inactive) | > 100 | 48.8 µM (inactive) | 20.7 µM (inactive) | 19.7 µM (inactive) | – | – | – | – |
| COC(=O)C1(O)c2ccccc2N=C2C1CCN2C (stereo not given) | – | > 100 µM (inactive) | > 100 µM (inactive) | > 100 µM (inactive) | > 100 µM (inactive) | > 100 µM (inactive) | > 100 µM (inactive) | 26.8 µM (inactive) | > 100 µM (inactive) | > 100 µM (inactive) | > 100 µM (inactive) | > 100 µM (inactive) | > 100 | > 100 µM (inactive) | > 100 µM (inactive) | > 100 µM (inactive) | > 100 µM (inactive) | > 100 µM (inactive) | – | – |
| CC1=CP(=O)(c2ccccc2)C=C(C)C1=C(Cl)Cl (stereo not given) | 3.19 µM (inactive) | 17.7 µM (inactive) | – | 17.4 µM (inactive) | 12.9 µM (inactive) | 11.2 µM (inactive) | 4.68 µM (inactive) | 4.83 µM (inactive) | 3.35 µM (inactive) | 4.99 µM (inactive) | 17.3 µM (inactive) | – | – | 3.27 µM (inactive) | 29.4 µM (inactive) | – | 4.67 µM (inactive) | – | – | – |
| COc1cc2c(cc1OC)-c1c(cc(OC)c(OC)c1OC)C2=O | > 100 µM (inactive) | > 100 µM (inactive) | 83.4 µM (inactive) | > 100 µM (inactive) | – | > 100 µM (inactive) | > 100 µM (inactive) | 18.2 µM (inactive) | > 100 µM (inactive) | > 100 µM (inactive) | > 100 µM (inactive) | > 100 µM (inactive) | > 100 | > 100 µM (inactive) | 93.3 µM (inactive) | > 100 µM (inactive) | 77.1 µM (inactive) | – | – | – |
| CCO/S(=N/S(=O)(=O)c1ccccc1)c1ccccc1[N+](=O)[O-] (stereo not given) | > 100 µM (inactive) | > 100 µM (inactive) | > 100 µM (inactive) | > 100 µM (inactive) | 44.1 µM (inactive) | > 100 µM (inactive) | – | > 100 µM (inactive) | > 100 µM (inactive) | > 100 µM (inactive) | > 100 µM (inactive) | > 100 µM (inactive) | > 100 | > 100 µM (inactive) | > 100 µM (inactive) | – | > 100 µM (inactive) | – | – | – |
| Cc1cc(C(=O)N2CCN(Cc3ccccc3)CC2)c(C)o1 | – | > 100 µM (inactive) | > 100 µM (inactive) | > 100 µM (inactive) | > 100 µM (inactive) | > 100 µM (inactive) | > 100 µM (inactive) | > 100 µM (inactive) | > 100 µM (inactive) | > 100 µM (inactive) | > 100 µM (inactive) | > 100 µM (inactive) | > 100 | > 100 µM (inactive) | > 100 µM (inactive) | > 100 µM (inactive) | > 100 µM (inactive) | > 100 µM (inactive) | – | – |
| COC(=O)C1CSC(c2csc(CCN)n2)=N1 (stereo not given) | > 100 µM (inactive) | > 100 µM (inactive) | > 100 µM (inactive) | > 100 µM (inactive) | > 100 µM (inactive) | > 100 µM (inactive) | > 100 µM (inactive) | > 100 µM (inactive) | > 100 µM (inactive) | > 100 µM (inactive) | > 100 µM (inactive) | > 100 µM (inactive) | > 100 | > 100 µM (inactive) | > 100 µM (inactive) | > 100 µM (inactive) | > 100 µM (inactive) | – | – | – |
| CCOC(=O)NC(=O)c1cn(C2CCCCC2)c(=O)[nH]c1=O | > 100 µM (inactive) | > 100 µM (inactive) | 56 µM (inactive) | > 100 µM (inactive) | 67.6 µM (inactive) | > 100 µM (inactive) | > 100 µM (inactive) | – | 32.2 µM (inactive) | 55.1 µM (inactive) | 54.8 µM (inactive) | > 100 µM (inactive) | 53.8 | 39.7 µM (inactive) | 77.3 µM (inactive) | 35.6 µM (inactive) | – | 85.3 µM (inactive) | – | – |
| NC(=S)NNc1c([N+](=O)[O-])cnn(-c2ccccc2)c1=O | 19.1 µM (inactive) | 19 µM (inactive) | 23.4 µM (inactive) | 19 µM (inactive) | 17.4 µM (inactive) | 17 µM (inactive) | 24 µM (inactive) | 19.4 µM (inactive) | 17.9 µM (inactive) | 15 µM (inactive) | 19.1 µM (inactive) | – | 17.3 | 9.02 µM (inactive) | 21.6 µM (inactive) | 18.7 µM (inactive) | 18.7 µM (inactive) | – | – | – |
| COc1cc2c[n+]3ccc4cc(OC)c(OC)cc4c3cc2cc1O | – | > 100 µM (inactive) | > 100 µM (inactive) | > 100 µM (inactive) | – | > 100 µM (inactive) | > 100 µM (inactive) | > 100 µM (inactive) | > 100 µM (inactive) | > 100 µM (inactive) | > 100 µM (inactive) | > 100 µM (inactive) | > 100 | > 100 µM (inactive) | > 100 µM (inactive) | > 100 µM (inactive) | > 100 µM (inactive) | > 100 µM (inactive) | – | – |
| Nc1ncnc2c1ncn2C1(CO)OC(CO)C(O)C1O (stereo not given) | > 100 µM (inactive) | > 100 µM (inactive) | – | > 100 µM (inactive) | > 100 µM (inactive) | > 100 µM (inactive) | > 100 µM (inactive) | > 100 µM (inactive) | > 100 µM (inactive) | > 100 µM (inactive) | – | – | > 100 | > 100 µM (inactive) | > 100 µM (inactive) | > 100 µM (inactive) | > 100 µM (inactive) | > 100 µM (inactive) | – | – |
| CC1(C)COC(C2(C)C(=O)C=C(c3ccccc3)c3ccccc32)=N1 (stereo not given) | 52.1 µM (inactive) | 50.5 µM (inactive) | 28.3 µM (inactive) | 47.1 µM (inactive) | 34.8 µM (inactive) | 42.9 µM (inactive) | 93.8 µM (inactive) | 33.4 µM (inactive) | 36.9 µM (inactive) | 46.1 µM (inactive) | 47.5 µM (inactive) | 45.4 µM (inactive) | 27.4 | 41.3 µM (inactive) | 22.4 µM (inactive) | 34.9 µM (inactive) | > 100 µM (inactive) | – | – | – |
| O=C1CCCCC/C1=C\c1ccccc1 | 67.1 µM (inactive) | > 100 µM (inactive) | > 100 µM (inactive) | > 100 µM (inactive) | 67.6 µM (inactive) | > 100 µM (inactive) | > 100 µM (inactive) | 87.3 µM (inactive) | 90.6 µM (inactive) | > 100 µM (inactive) | > 100 µM (inactive) | > 100 µM (inactive) | > 100 | – | > 100 µM (inactive) | > 100 µM (inactive) | 45 µM (inactive) | > 100 µM (inactive) | 76 µM (inactive) | > 100 µM (inactive) |
